Paper PMC4426668, “De novo synthesis of a sunscreen compound in vertebrates” (eLife, 2015)

Key:
Assay type in all cases: biochemical
[1] = biological target: T1, LOC100003999 (zebrafish EEVS, DrEEVS) (Danio rerio, UniProt A0ACD6B5C7); assay: TLC; GC-MS of silylated product against authentic EEV (cell-free extract); details: 4 mM SH7P, 1 mM NAD+, 0.1 mM CoCl2 or ZnSO4, pH 7.5, 30 °C
T1 construct: N-terminal His6 tag (pRSET-B), codon-optimised synthetic gene, expressed in E. coli BL21 GOLD (DE3) pLysS, Ni-NTA purified
T1 sequence (A0ACD6B5C7 1-470): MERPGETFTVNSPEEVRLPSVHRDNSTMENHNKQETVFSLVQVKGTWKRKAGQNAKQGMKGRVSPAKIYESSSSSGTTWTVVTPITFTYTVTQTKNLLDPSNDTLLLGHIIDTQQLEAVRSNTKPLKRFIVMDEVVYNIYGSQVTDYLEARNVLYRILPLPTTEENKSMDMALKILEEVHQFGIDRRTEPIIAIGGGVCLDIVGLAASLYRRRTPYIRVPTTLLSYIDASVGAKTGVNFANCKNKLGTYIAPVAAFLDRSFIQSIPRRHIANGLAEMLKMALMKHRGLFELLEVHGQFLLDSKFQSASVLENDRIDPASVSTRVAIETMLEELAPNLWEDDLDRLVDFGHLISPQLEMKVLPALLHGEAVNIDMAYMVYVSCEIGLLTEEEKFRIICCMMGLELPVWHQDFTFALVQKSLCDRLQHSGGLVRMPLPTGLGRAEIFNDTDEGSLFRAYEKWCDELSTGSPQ

[2] = biological target: T2, ValA (ShEEVS) (Streptomyces hygroscopicus, UniProt H2K887); assay: TLC and GC-MS of product; details: positive control enzyme; 4 mM SH7P, 1 mM NAD+, 0.1 mM CoCl2 or ZnSO4, 20 mM Tris-HCl pH 7.5, 30 °C, 2 h
T2 construct: N-terminal His6 tag (pRSETB-valA), expressed in E. coli BL21 GOLD (DE3) pLysS, Ni-NTA purified
T2 sequence (H2K887 whole entry): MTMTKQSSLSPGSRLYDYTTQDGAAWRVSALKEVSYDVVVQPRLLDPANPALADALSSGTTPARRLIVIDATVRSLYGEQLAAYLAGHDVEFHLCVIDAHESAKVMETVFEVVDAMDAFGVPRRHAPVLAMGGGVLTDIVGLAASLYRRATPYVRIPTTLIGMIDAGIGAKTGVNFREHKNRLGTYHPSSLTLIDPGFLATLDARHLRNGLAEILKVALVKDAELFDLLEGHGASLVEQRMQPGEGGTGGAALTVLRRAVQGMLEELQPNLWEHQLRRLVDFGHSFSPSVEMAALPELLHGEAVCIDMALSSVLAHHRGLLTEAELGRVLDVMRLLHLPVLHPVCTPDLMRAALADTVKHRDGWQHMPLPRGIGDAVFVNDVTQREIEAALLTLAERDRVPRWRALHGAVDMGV

[3] = biological target: T3, MT-Ox (zgc:113054) (Danio rerio, UniProt A0ACM8Q6W2); assay: product (gadusol) detection by (-)-ESI-MS; details: SAM and NAD+ present; 30 °C
T3 construct: gene wu:fd55e12; bifunctional full-length protein (N-terminal SAM methyltransferase domain, C-terminal NAD+ oxidoreductase domain), N-terminal His6 tag (pRSET-B), codon-optimised, E. coli, Ni-NTA purified
T3 sequence (A0ACM8Q6W2 1-551): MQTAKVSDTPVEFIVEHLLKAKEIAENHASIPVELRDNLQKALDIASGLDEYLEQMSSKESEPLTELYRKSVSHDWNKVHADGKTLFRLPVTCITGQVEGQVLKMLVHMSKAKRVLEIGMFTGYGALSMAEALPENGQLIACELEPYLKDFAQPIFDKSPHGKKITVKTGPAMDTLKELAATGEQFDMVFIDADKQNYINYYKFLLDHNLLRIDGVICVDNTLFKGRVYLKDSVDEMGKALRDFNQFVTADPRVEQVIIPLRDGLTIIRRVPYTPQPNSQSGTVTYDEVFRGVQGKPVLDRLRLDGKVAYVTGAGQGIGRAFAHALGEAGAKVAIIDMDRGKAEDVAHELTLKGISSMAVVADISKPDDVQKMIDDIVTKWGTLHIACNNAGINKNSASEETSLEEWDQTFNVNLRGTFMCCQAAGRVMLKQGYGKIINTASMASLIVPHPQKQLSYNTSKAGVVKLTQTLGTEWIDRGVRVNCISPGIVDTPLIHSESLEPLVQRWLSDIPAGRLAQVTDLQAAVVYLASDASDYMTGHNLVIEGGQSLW

[4] = biological target: T1, LOC100003999 (zebrafish EEVS, DrEEVS); assay: product detection by TLC; GC-MS with cell-free extract; details: 4 mM SH7P, 1 mM NAD+, 0.1 mM CoCl2 or ZnSO4, 20 mM Tris-HCl pH 7.5, 30 °C, 2 h
[5] = biological target: T3, MT-Ox (zgc:113054); assay: product (gadusol) detection by HPLC-UV and (-)-ESI-MS; details: methyl donor, 5 mM; NAD+ 2 mM, CoCl2 0.2 mM, phosphate pH 7.4, 30 °C

SMILES | TLC; GC-MS of silylated product against authentic EEV (cell-free extract) [1] | TLC and GC-MS of product [2] | product (gadusol) detection by (-)-ESI-MS [3] | product detection by TLC; GC-MS with cell-free extract [4] | product (gadusol) detection by HPLC-UV and (-)-ESI-MS [5]
O=C1C[C@@](O)(CO)[C@@H](O)[C@H](O)[C@@H]1O [2-epi-5-epi-valiolone] | confirmed by thin-layer chromatography (TLC) and GC-MS to be EEV | TLC analysis of enzymatic products of purified ValA and purified LOC100003999 | Synthetic EEV incubated with purified MT-Ox |  | 
O=P(O)(O)OC[C@@H](O)[C@H]1OC(O)(CO)[C@@H](O)[C@@H]1O (stereo partly drawn) [sedoheptulose 7-phosphate] |  | ValA (instead of LOC100003999) was used as a positive control |  | Incubation of the recombinant protein with SH7P gave a product | 
C[S+](CC[C@H](N)C(=O)O)C[C@H]1O[C@@H](n2cnc3c(N)ncnc32)[C@H](O)[C@@H]1O (stereo partly drawn) [S-adenosylmethionine] |  |  |  |  | incubated with EEV in the presence of SAM and NAD^+
